Results: US20240246918A1, “COMPOUNDS AND COMPOSITIONS AS EIF4E INHIBITORS AND THE USES THEREOF” (Ribometrix, Inc., priority 2022, published 2024)

Tests used:
human eIF4E protein = molecular target: T1, human eIF4E protein (Homo sapiens, UniProt P06730); assay: Biochemical competitive binding assay (TR-FRET competition, EDA-m7GDP-ATTO-647N probe); details: read-out: hEIF4E TR-FRET IC50
T1 construct: purchased Novus NBP-45314
Summary of the method: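 His-tagged human eIF4E (4 nM) was preincubated with Eu-anti-His antibody (2.5 nM) and added to compound (11-point, 4-fold dilutions) for 15 min. Then 5 nM EDA-m7GDP-ATTO-647N was added for 15 min, in HEPES pH 7.5, 100 mM KCl. The 665/620 TR-FRET ratio was normalized to controls, and IC50 was taken from 4-parameter fits.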

[1] = test system: COLO 205 colorectal tumor cells; assay: Tumor cell viability inhibition assay (CellTiter-Glo 2.0, 72 hours); type: cell-based; details: Homo sapiens, COLO 205, 72 h, COLO 205 cell viability
Summary of the method: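 COLO 205 cells (1500/well, RPMI-1640 + 10% FBS) exposed for 72 h to an 11-point, 4-fold dilution series; cellular ATP read by CellTiter-Glo 2.0 luminescence. Data normalized to DMSO and maximum-inhibition controls; IC50 from 4-parameter curve fit.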

[2] = test system: cap-dependent translation in Flp-In-293 reporter cells; assay: Cellular cap-dependent translation inhibition assay (dual luciferase assay, DLA; Fluc/Rluc ratio, 24 hours); type: cell-based; details: Homo sapiens, Flp-In-293, 24 h, dual luciferase assay, Flp-In-293 reporter cells, 24 hours, Fluc/Rluc ratio; read-out: DLA 205 IC50

T1 sequence (P06730 whole entry): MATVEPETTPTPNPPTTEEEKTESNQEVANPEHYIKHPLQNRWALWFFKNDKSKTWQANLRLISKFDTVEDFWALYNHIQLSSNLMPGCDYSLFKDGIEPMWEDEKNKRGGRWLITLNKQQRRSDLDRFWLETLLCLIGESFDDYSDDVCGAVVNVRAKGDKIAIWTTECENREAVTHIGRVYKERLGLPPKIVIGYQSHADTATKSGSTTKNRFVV

Structure (SMILES): Cc1cc(-c2cc(Cl)ccc2OCCn2c(C)nc3c(c2=O)CC(N2CC4COCC4C2)CC3)c2sccc2n1 (stereo not drawn) [Compound 78]
- IC50 (human eIF4E protein): 100 to 500 nM
- IC50 [1]: > 20000 nM
- IC50 [2]: 1000 to 5000 nM

Structure (SMILES): COC1CCN(C2CCc3nc(C)n(CCOc4ccc(Cl)cc4-c4cc(C)nc5c(C(=O)NS(C)(=O)=O)csc45)c(=O)c3C2)CC1 (stereo not drawn) [Compound 79]
- IC50 (human eIF4E protein): < 100 nM
- IC50 [1]: < 5000 nM
- IC50 [2]: < 1000 nM

Structure (SMILES): Cc1cc(-c2cc(Cl)ccc2OCCn2c(C)nc3c(c2=O)CC(N(C)C2CCCC2)CC3)c2scc(C(=O)O)c2n1 (stereo not drawn) [Compound 80]
- IC50 (human eIF4E protein): < 100 nM
- IC50 [1]: < 5000 nM
- IC50 [2]: < 1000 nM

Structure (SMILES): Cc1cc(-c2cc(Cl)ccc2OCCn2c(C)nc3c(c2=O)CC(N2CCCC(F)(F)C2)CC3)c2scc(C(=O)NS(C)(=O)=O)c2n1 (stereo not drawn) [Compound 81]
- IC50 (human eIF4E protein): < 100 nM
- IC50 [1]: < 5000 nM
- IC50 [2]: < 1000 nM

Structure (SMILES): Cc1cc(-c2cc(Cl)ccc2OCCn2c(C)nc3c(c2=O)CC(N(C)C(=O)C2CCN(CC(F)(F)F)CC2)CC3)c2scc(C(=O)NS(C)(=O)=O)c2n1 (stereo not drawn) [Compound 82]
- IC50 (human eIF4E protein): < 100 nM
- IC50 [1]: > 20000 nM
- IC50 [2]: 1000 to 5000 nM

Structure (SMILES): Cc1cc(-c2cc(Cl)ccc2OCCn2c(C)nc3c(c2=O)CC(N(CC(F)(F)F)C2CCC2)CC3)c2scc(C(=O)O)c2n1 (stereo not drawn) [Compound 83]
- IC50 (human eIF4E protein): < 100 nM
- IC50 [1]: 5000 to 20000 nM
- IC50 [2]: 1000 to 5000 nM

Structure (SMILES): Cc1cc(-c2cc(Cl)ccc2OCCn2c(C)nc3c(c2=O)CC(N(C)C(=O)C2CCN(C)CC2)CC3)c2scc(C(=O)NS(C)(=O)=O)c2n1 (stereo not drawn) [Compound 84]
- IC50 (human eIF4E protein): < 100 nM
- IC50 [1]: > 20000 nM
- IC50 [2]: > 5000 nM

Structure (SMILES): Cc1nc2c(c(=O)n1CC#Cc1ccc(Cl)cc1-c1ccnc3c(C(=O)O)csc13)CC(N1CC(F)(F)C1)CC2 (stereo not drawn) [Compound 85]
- IC50 (human eIF4E protein): 100 to 500 nM
- IC50 [1]: < 5000 nM
- IC50 [2]: 1000 to 5000 nM

Structure (SMILES): Cc1nc2c(c(=O)n1CC#Cc1ccc(Cl)cc1-c1ccnc3c(C(=O)O)csc13)CC(N(C)C1CC(F)(F)C1)CC2 (stereo not drawn) [Compound 86]
- IC50 (human eIF4E protein): < 100 nM
- IC50 [1]: < 5000 nM
- IC50 [2]: < 1000 nM

Structure (SMILES): Cc1cc(-c2cc(Cl)ccc2OCCn2c(C)nc3c(c2=O)CC(N(CC(F)(F)F)C2CCC2)CC3)c2scc(C(=O)NS(C)(=O)=O)c2n1 (stereo not drawn) [Compound 87]
- IC50 (human eIF4E protein): < 100 nM
- IC50 [1]: < 5000 nM
- IC50 [2]: < 1000 nM

Structure (SMILES): Cc1cc(-c2cc(Cl)ccc2OCCn2c(C)nc3c(c2=O)CC(N2CCN(C)C(=O)C2)CC3)c2scc(C(=O)NS(C)(=O)=O)c2n1 (stereo not drawn) [Compound 88]
- IC50 (human eIF4E protein): < 100 nM
- IC50 [1]: > 20000 nM
- IC50 [2]: > 5000 nM

Structure (SMILES): Cc1cc(-c2cc(Cl)ccc2OCCn2c(C)nc3c(c2=O)CC(N2CC(C(F)(F)F)C2)CC3)c2scc(C(=O)O)c2n1 (stereo not drawn) [Compound 90]
- IC50 (human eIF4E protein): < 100 nM
- IC50 [1]: < 5000 nM
- IC50 [2]: < 1000 nM

Structure (SMILES): Cc1cc(-c2cc(Cl)ccc2OCCn2c(C)nc3c(c2=O)CC(N(C)C2CCC2)CC3)c2scc(C(=O)O)c2n1 (stereo not drawn) [Compound 91]
- IC50 (human eIF4E protein): < 100 nM
- IC50 [1]: < 5000 nM
- IC50 [2]: < 1000 nM

Structure (SMILES): Cc1cc(-c2cc(Cl)ccc2OCCn2c(C)nc3c(c2=O)CC(OC2CCN(C)CC2)CC3)c2scc(C(=O)O)c2n1 (stereo not drawn) [Compound 92]
- IC50 (human eIF4E protein): 100 to 500 nM
- IC50 [1]: > 20000 nM
- IC50 [2]: > 5000 nM

Structure (SMILES): Cc1cc(-c2cc(Cl)ccc2OCCn2c(C)nc3c(c2=O)CC(N2CCN(C)C(=O)C2)CC3)c2scc(C(=O)O)c2n1 (stereo not drawn) [Compound 95]
- IC50 (human eIF4E protein): < 100 nM
- IC50 [1]: > 20000 nM
- IC50 [2]: > 5000 nM

Structure (SMILES): Cc1cc(-c2cc(Cl)ccc2OCCn2c(C)nc3c(c2=O)CC(N(C)CC2CC(F)(F)C2)CC3)c2scc(C(=O)O)c2n1 (stereo not drawn) [Compound 96]
- IC50 (human eIF4E protein): < 100 nM
- IC50 [1]: < 5000 nM
- IC50 [2]: < 1000 nM

Structure (SMILES): Cc1cc(-c2cc(Cl)ccc2OCCn2c(C)nc3c(c2=O)CC(N(C2CCC2)C2CC2)CC3)c2scc(C(=O)O)c2n1 (stereo not drawn) [Compound 97]
- IC50 (human eIF4E protein): < 100 nM
- IC50 [1]: < 5000 nM
- IC50 [2]: < 1000 nM

Structure (SMILES): Cc1cc(-c2cc(Cl)ccc2OCCn2c(C)nc3c(c2=O)CC(N(C2CCC2)C2CC(F)(F)C2)CC3)c2scc(C(=O)NS(C)(=O)=O)c2n1 (stereo not drawn) [Compound 98]
- IC50 (human eIF4E protein): < 100 nM
- IC50 [1]: < 5000 nM
- IC50 [2]: < 1000 nM

Structure (SMILES): COc1cc(CN(C)C2CCc3nc(C)n(CCOc4ccc(Cl)cc4-c4cc(C)nc5c(C(=O)O)csc45)c(=O)c3C2)ccn1 (stereo not drawn) [Compound 248]
- IC50 (human eIF4E protein): < 100 nM
- IC50 [1]: < 5000 nM
- IC50 [2]: < 1000 nM

Structure (SMILES): Cc1cc(-c2cc(Cl)ccc2OCCn2c(C)nc3c(c2=O)CC(N(C)C2CC24CCC4)CC3)c2scc(C(=O)O)c2n1 (stereo not drawn) [Compound 262]
- IC50 (human eIF4E protein): < 100 nM
- IC50 [1]: < 5000 nM
- IC50 [2]: < 1000 nM

Structure (SMILES): Cc1cc(-c2cc(Cl)ccc2OCCn2c(C)nc3c(c2=O)CC(N(C)C2(C(F)(F)F)CC2)CC3)c2scc(C(=O)O)c2n1 (stereo not drawn) [Compound 265]
- IC50 (human eIF4E protein): 100 to 500 nM
- IC50 [1]: > 20000 nM
- IC50 [2]: 1000 to 5000 nM

Structure (SMILES): Cc1cc(-c2cc(Cl)ccc2OCCn2c(C)nc3c(c2=O)CC2(CC3)CCN(C3CC3)CC2)c2scc(C(=O)O)c2n1 [Compound 267, 7-(5-chloro-2-(2-(1-cyclopropyl-2′-methyl-4′-oxo-7′,8′-dihydro-4′H-spiro[piperidine-4,6′-quinazolin]-3′(5′H)-yl)ethoxy)phenyl)-5-methylthieno[3,2-b]pyridine-3-carboxylic acid]
- IC50 (human eIF4E protein): < 100 nM
- IC50 [1]: 5000 to 20000 nM
- IC50 [2]: < 1000 nM

Structure (SMILES): Cc1cc(-c2cc(Cl)ccc2OCCn2c(C)nc3c(c2=O)CC2(CC3)CCN(C)CC2)c2scc(C(=O)O)c2n1 [Compound 268, 7-(5-chloro-2-(2-(1,2′-dimethyl-4′-oxo-7′,8′-dihydro-4′H-spiro[piperidine-4,6′-quinazolin]-3′(5′H)-yl)ethoxy)phenyl)-5-methylthieno[3,2-b]pyridine-3-carboxylic acid]
- IC50 (human eIF4E protein): 500 to 5000 nM
- IC50 [1]: > 20000 nM
- IC50 [2]: > 5000 nM

Structure (SMILES): Cc1cc(-c2cc(Cl)ccc2OCCn2c(C)cc3c(c2=O)CC2(CC3)CN(C)C2)c2scc(C(=O)O)c2n1 [Compound 269]
- IC50 (human eIF4E protein): < 100 nM
- IC50 [1]: > 20000 nM
- IC50 [2]: > 5000 nM

Structure (SMILES): Cc1cc(-c2cc(Cl)ccc2OCCn2c(C)nc3c(c2=O)CC2(CC3)CN(C3CC3)C2)c2scc(C(=O)O)c2n1 [Compound 270, 7-(5-chloro-2-(2-(1-cyclopropyl-2′-methyl-4′-oxo-7′,8′-dihydro-4′H-spiro[azetidine-3,6′-quinazolin]-3′(5′H)-yl)ethoxy)phenyl)-5-methylthieno[3,2-b]pyridine-3-carboxylic acid]
- IC50 (human eIF4E protein): < 100 nM
- IC50 [1]: 5000 to 20000 nM
- IC50 [2]: < 1000 nM

Structure (SMILES): Cc1nc2c(c(=O)n1CC#Cc1ccc(Cl)cc1-c1ccnc3c(C(=O)NS(C)(=O)=O)csc13)CC(N(C)C1CC1)CC2 (stereo not drawn) [Compound 271]
- IC50 (human eIF4E protein): < 100 nM
- IC50 [1]: < 5000 nM
- IC50 [2]: < 1000 nM

Structure (SMILES): Cc1cc(-c2cc(Cl)ccc2OCCn2c(C)nc3c(c2=O)CC(N(C)C2CC2)CC3)c2c(n1)c(C(=O)NS(C)(=O)=O)cn2C (stereo not drawn) [Compound 272]
- IC50 (human eIF4E protein): 500 to 5000 nM
- IC50 [1]: > 20000 nM
- IC50 [2]: > 5000 nM

Structure (SMILES): Cc1cc(-c2cc(Cl)ccc2OCCn2c(C)nc3c(c2=O)CC(N(C)C2(c4ccc(F)cc4)CC2)CC3)c2scc(C(=O)NS(C)(=O)=O)c2n1 (stereo not drawn) [Compound 274]
- IC50 (human eIF4E protein): 100 to 500 nM
- IC50 [1]: 5000 to 20000 nM
- IC50 [2]: 1000 to 5000 nM

Structure (SMILES): Cc1nc2c(c(=O)n1CC#Cc1ccc(Cl)cc1-c1ccnc3c(C(=O)O)csc13)CC(N(C)C1CCN(CC(F)(F)F)CC1)CC2 (stereo not drawn) [Compound 275]
- IC50 (human eIF4E protein): < 100 nM
- IC50 [1]: < 5000 nM
- IC50 [2]: < 1000 nM

Structure (SMILES): Cc1cc(-c2cc(Cl)ccc2OCCn2c(C)nc3c(c2=O)CC(N(C)C2CCN(CC(F)(F)F)CC2)CC3)c2scc(C(=O)O)c2n1 (stereo not drawn) [Compound 276]
- IC50 (human eIF4E protein): < 100 nM
- IC50 [1]: < 5000 nM
- IC50 [2]: < 1000 nM
